From patent US9717728B2, “Pharmaceutical combination comprising a B-Raf inhibitor and a histone deacetylase inhibitor and their use in the treatment of proliferative diseases” (NOVARTIS AG, priority 2012, dated 2017)
Entries after “also recorded” stand apart in the source; their conditions may differ.

Assays:
[1] = test system: Mel-P3-Post; test: z-VAD-fmk-FITC staining for caspase positive cells; format: cell-based, human; conditions: B-Raf 5 uM, HDAI 0 nM, 48 hours
Source text: (§1) Cell lines: Mel-PX-Pre and Mel-PX-post represent cell lines derived from patient-X pre- and post-treatment with vemurafenib.

[2] = test system: Mel-P3-Pre; test: Cell cycle staining and sub-G1 analysis of dead cells (flow cytometry); format: cell-based, human; conditions: for CELL CYCLE AVG G1 / CELL CYCLE AVG G2/M / CELL CYCLE AVG S / sub-G1 %: Mel-P3-Pre, HDAI 0 nM, 48 hours
Source text: as §1

[3] = test system: Mel-P3-Post; test: as above; format: cell-based, human; conditions: for CELL CYCLE AVG G1 / CELL CYCLE AVG G2/M / CELL CYCLE AVG S / sub-G1 %: Mel-P3-Post, HDAI 0 nM, 48 hours
Source text: as §1

[4] = test system: Mel-P3-Post; test: JC1 staining for mitochondrial depolarisation; format: cell-based, human; conditions: B-Raf 5 uM, HDAI 0, 48 hours
Source text: as §1

[5] = test system: Melanocytes (NHEM); test: Cell cycle staining and sub-G1 analysis of dead cells (flow cytometry); format: cell-based
[6] = test system: Mel-P1-Post; test: Sub-G1 analysis of dead cells; format: cell-based, human; conditions: B-Raf 10 uM, HDAI 0 nM, 48 hours
Source text: as §1

[7] = test system: Mel-P4-Pre; test: Sub-G1 analysis of dead cells; format: cell-based, human; conditions: B-Raf 10 uM, HDAI 0 nM, 48 hours
Source text: as §1

[8] = test system: Mel-P1-Pre; test: Sub-G1 analysis of dead cells; format: cell-based, human; conditions: B-Raf 10 uM, HDAI 0 nM, 48 hours
Source text: as §1

[9] = test system: Mel-P4-Post; test: Sub-G1 analysis of dead cells; format: cell-based, human; conditions: B-Raf 10 uM, HDAI 0 nM, 48 hours
Source text: as §1

[10] = test system: melanoma lines; test: Cell cycle arrest and apoptosis in matched pre and post melanoma cell lines; format: cell-based, human; conditions: B-Raf-mutant melanoma, listed as B-Raf inhibitor of Formula (I)
Experimental: The B-Raf inhibitor of Formula (I) was tested on the matched pre and post cell lines established from patients before treatment and after progression on vemurafenib treatment. […] Combining panobinostat with the B-Raf inhibitor of Formula (I), caused a synergistic increase in apoptosis in melanoma lines. The increase in apoptosis was also observed in the “post” cell lines which had previously acquired resistance to the B-Raf inhibitor, vemurafenib.

[11] = test system: Mel-P3-Pre; test: Annexin-V staining per quadrant (flow cytometry); format: cell-based, human; conditions: HDAI 0 nM, 48 hours
Source text: as §1

[12] = test system: Mel-P3-Post; test: Annexin-V staining per quadrant (flow cytometry); format: cell-based, human; conditions: HDAI 0 nM, 48 hours
Source text: as §1

[13] = Melanocytes (NHEM), B-Raf 10 uM, HDAI 0 nM, 48 hours

COC(=O)N[C@@H](C)CNc1nccc(-c2cn(C(C)C)nc2-c2cc(Cl)cc(NS(C)(=O)=O)c2F)n1 [B-Raf]
z-VAD-fmk positive [1]: 14
CELL CYCLE AVG G1 ([2]; B-Raf 0.1 uM): 85
CELL CYCLE AVG G2/M ([2]; B-Raf 0.1 uM): 6
CELL CYCLE AVG S ([2]; B-Raf 0.1 uM): 10
sub-G1 % ([2]; B-Raf 0.1 uM): 10%
CELL CYCLE AVG G1 ([2]; B-Raf 1 uM): 90
CELL CYCLE AVG G2/M ([2]; B-Raf 1 uM): 6
CELL CYCLE AVG S ([2]; B-Raf 1 uM): 5
sub-G1 % ([2]; B-Raf 1 uM): 12%
CELL CYCLE AVG G1 ([2]; B-Raf 10 uM): 92
CELL CYCLE AVG G2/M ([2]; B-Raf 10 uM): 4
CELL CYCLE AVG S ([2]; B-Raf 10 uM): 4
sub-G1 % ([2]; B-Raf 10 uM): 20%
G1 arrest (in words) ([2]; Mel-P3 “pre” cell line): potent G1 arrest
apoptosis (in words) ([2]; Mel-P3 “pre” cell line): low level apoptosis
CELL CYCLE AVG G1 ([3]; B-Raf 0.1 uM): 65
CELL CYCLE AVG G2/M ([3]; B-Raf 0.1 uM): 12
CELL CYCLE AVG S ([3]; B-Raf 0.1 uM): 23
sub-G1 % ([3]; B-Raf 0.1 uM): 2%
CELL CYCLE AVG G1 ([3]; B-Raf 1 uM): 68
CELL CYCLE AVG G2/M ([3]; B-Raf 1 uM): 10
CELL CYCLE AVG S ([3]; B-Raf 1 uM): 22
sub-G1 % ([3]; B-Raf 1 uM): 2%
CELL CYCLE AVG G1 ([3]; B-Raf 10 uM): 72
CELL CYCLE AVG G2/M ([3]; B-Raf 10 uM): 7
CELL CYCLE AVG S ([3]; B-Raf 10 uM): 21
sub-G1 % ([3]; B-Raf 10 uM): 4%
G1 arrest (in words) ([3]; Mel-P3 “post” cell line): weaker G1 arrest
apoptosis (in words) ([3]; Mel-P3 “post” cell line): no apoptosis
Depolarised mitochondria [4]: 88
cell death of melanocytes (in words) ([5]; Melanocytes): did not die
CELL CYCLE AVG G1 [5, 13]: 98
CELL CYCLE AVG G2/M [5, 13]: 1
CELL CYCLE AVG S [5, 13]: 1
sub-G1 % [5, 13]: 3%
sub-G1 % [6]: 10%
sub-G1 % [7]: 58%
sub-G1 % [8]: 10%
sub-G1 % [9]: 54%
cell cycle arrest and apoptosis (in words) [10]: potent cell cycle inhibition and cell line-dependent apoptosis; also recorded: potent G1 arrest and cell-line dependent apoptosis
Annexin Staining per quadrant. Lower Left* (“healthy” cells) ([11]; B-Raf 0.1 uM): 88
Annexin Staining per quadrant. Lower Right ([11]; B-Raf 0.1 uM): 7
Annexin Staining per quadrant. Upper Left ([11]; B-Raf 0.1 uM): 0
Annexin Staining per quadrant. Upper Right ([11]; B-Raf 0.1 uM): 4
Annexin Staining per quadrant. Lower Left* (“healthy” cells) ([11]; B-Raf 1 uM): 85
Annexin Staining per quadrant. Lower Right ([11]; B-Raf 1 uM): 8
Annexin Staining per quadrant. Upper Left ([11]; B-Raf 1 uM): 0
Annexin Staining per quadrant. Upper Right ([11]; B-Raf 1 uM): 6
Annexin Staining per quadrant. Lower Left* (“healthy” cells) ([11]; B-Raf 10 uM): 73
Annexin Staining per quadrant. Lower Right ([11]; B-Raf 10 uM): 13
Annexin Staining per quadrant. Upper Left ([11]; B-Raf 10 uM): 1
Annexin Staining per quadrant. Upper Right ([11]; B-Raf 10 uM): 13
Annexin Staining per quadrant. Lower Left* (“healthy” cells) ([12]; B-Raf 0.1 uM): 91
Annexin Staining per quadrant. Lower Right ([12]; B-Raf 0.1 uM): 5
Annexin Staining per quadrant. Upper Left ([12]; B-Raf 0.1 uM): 0
Annexin Staining per quadrant. Upper Right ([12]; B-Raf 0.1 uM): 4
Annexin Staining per quadrant. Lower Left* (“healthy” cells) ([12]; B-Raf 1 uM): 91
Annexin Staining per quadrant. Lower Right ([12]; B-Raf 1 uM): 5
Annexin Staining per quadrant. Upper Left ([12]; B-Raf 1 uM): 0
Annexin Staining per quadrant. Upper Right ([12]; B-Raf 1 uM): 4
Annexin Staining per quadrant. Lower Left* (“healthy” cells) ([12]; B-Raf 10 uM): 89
Annexin Staining per quadrant. Lower Right ([12]; B-Raf 10 uM): 5
Annexin Staining per quadrant. Upper Left ([12]; B-Raf 10 uM): 0
Annexin Staining per quadrant. Upper Right ([12]; B-Raf 10 uM): 6
